Where a SMILES comes first, the peptide text is derived from it. [ ]: non-standard residue; d: D form. The star is where a group is joined. ξ: configuration not given here. X1 = COc1cccc2c1C(=O)c1c(O)c3c(c(O)c1C2=O)C[C@](O)(C(=O)CO)C[C@H]3O[C@@H]1C[C@@H](N*)[C@H](O)[C@@H](C)O1; X2 = COc1cccc2c1C(=O)c1c(O)c3c(c(O)c1C2=O)C[C@@](O)(C(=O)CO)C[C@@H]3O[C@H]1C[C@H](N*)[C@@H](O)[C@H](C)O1; Dnp = O=[N+]([O-])c1ccc(*)c([N+](=O)[O-])c1; ξhPhe = NC(CCc1ccccc1)C(=O)O; ξCha = NC(CC1CCCCC1)C(=O)O; Cbz = O=C(OCc1ccccc1)*; Bn = c1ccc(C*)cc1
Key:
[1] = molecular target: T1, 72 kDa type IV collagenase (Homo sapiens, UniProt P08253); assay: Prodrug activation assessed as recombinant human MMP2-mediated Cbz-Gly-Pro-Ile-Gln-Glu-Hof formation at 10 uM after 12 hrs by LC-MS analysis
[2] = molecular target: T2, Matrix metalloproteinase-9 (Homo sapiens, UniProt P14780); assay: Prodrug activation assessed as recombinant human MMP9-mediated compound cleavage at 10 uM after 12 hrs by LC-MS analysis
[3] = Prodrug activation in Balb/c immunodeficient nude mouse xenografted with human HT1080 cells assessed as half life for prodrug in tumor homogenates after 60 mins by LC-MS analysis; type: tissue-based, Neoplasm; conditions: tissue homogenate, 1 h
[4] = Retention time of compound by RP-HPLC analysis
U-87 MG [5] = assay: Cytotoxicity against human U87MG cells treated with MJ02 assessed as reduction in cell survival after 96 hrs in presence of MMP inhibitor GM6001 by MTT assay; type: functional, cell-based, U-87MG ATCC
U-87 MG [6] = assay: Cytotoxicity against human U87MG cells assessed as reduction in cell survival after 96 hrs by MTT assay; type: functional, cell-based, U-87MG ATCC
Kidney = assay: Prodrug activation in Balb/c immunodeficient nude mouse xenografted with human HT1080 cells assessed as half life for prodrug in kidney after 60 mins by LC-MS analysis; type: tissue-based; conditions: 1 h
[7] = molecular target: T3, Matrix metalloproteinase-14 (Homo sapiens, UniProt P50281); assay: Prodrug activation assessed as recombinant human MMP14-mediated compound cleavage at 10 uM after 12 hrs by LC-MS analysis
Liver = assay: Prodrug activation in Balb/c immunodeficient nude mouse xenografted with human HT1080 cells assessed as half life for prodrug in liver after 60 mins by LC-MS analysis; type: tissue-based; conditions: 1 h
Plasma = assay: Prodrug activation in Balb/c immunodeficient nude mouse xenografted with human HT1080 cells assessed as half life for prodrug in plasma after 60 mins by LC-MS analysis; type: cell-free; conditions: 1 h
[8] = molecular target: T1, 72 kDa type IV collagenase; assay: Prodrug activation assessed as recombinant human MMP2-mediated Leu-doxorubicin formation at 10 uM after 12 hrs by LC-MS analysis
[9] = Retention time of compound by LC-MS analysis
[10] = molecular target: T2, Matrix metalloproteinase-9; assay: Prodrug activation assessed as recombinant human MMP9-mediated Ser(O-benzyl)-Tyr-Leu-doxorubicin formation at 10 uM after 12 hrs by LC-MS analysis
[11] = molecular target: T1, 72 kDa type IV collagenase; assay: Prodrug activation assessed as recombinant human MMP2-mediated Ser(O-benzyl)-Tyr-Leu-doxorubicin formation at 10 uM after 12 hrs by LC-MS analysis
[12] = molecular target: T2, Matrix metalloproteinase-9; assay: Prodrug activation assessed as recombinant human MMP9-mediated Cbz-Glu-Pro-Leu-Gly formation at 10 uM after 12 hrs by LC-MS analysis
[13] = molecular target: T1, 72 kDa type IV collagenase; assay: Prodrug activation assessed as recombinant human MMP2-mediated Cbz-Glu-Pro-Leu-Gly formation at 10 uM after 12 hrs by LC-MS analysis
[14] = molecular target: T3, Matrix metalloproteinase-14; assay: Prodrug activation assessed as recombinant human MMP14-mediated Cbz-Glu-Pro-Leu-Gly metabolite at 10 uM after 12 hrs by LC-MS analysis; type: ADME
[15] = molecular target: T3, Matrix metalloproteinase-14; assay: Prodrug activation assessed as recombinant human MMP14-mediated Ser(O-benzyl)-Tyr-Leu-doxorubicin formation at 10 uM after 12 hrs by LC-MS analysis
U-87 MG [16] = assay: Cytotoxicity against human U87MG cells treated with MJ02 assessed as reduction in cell survival after 96 hrs by MTT assay; type: functional, cell-based, U-87MG ATCC

T1 sequence (P08253 whole entry): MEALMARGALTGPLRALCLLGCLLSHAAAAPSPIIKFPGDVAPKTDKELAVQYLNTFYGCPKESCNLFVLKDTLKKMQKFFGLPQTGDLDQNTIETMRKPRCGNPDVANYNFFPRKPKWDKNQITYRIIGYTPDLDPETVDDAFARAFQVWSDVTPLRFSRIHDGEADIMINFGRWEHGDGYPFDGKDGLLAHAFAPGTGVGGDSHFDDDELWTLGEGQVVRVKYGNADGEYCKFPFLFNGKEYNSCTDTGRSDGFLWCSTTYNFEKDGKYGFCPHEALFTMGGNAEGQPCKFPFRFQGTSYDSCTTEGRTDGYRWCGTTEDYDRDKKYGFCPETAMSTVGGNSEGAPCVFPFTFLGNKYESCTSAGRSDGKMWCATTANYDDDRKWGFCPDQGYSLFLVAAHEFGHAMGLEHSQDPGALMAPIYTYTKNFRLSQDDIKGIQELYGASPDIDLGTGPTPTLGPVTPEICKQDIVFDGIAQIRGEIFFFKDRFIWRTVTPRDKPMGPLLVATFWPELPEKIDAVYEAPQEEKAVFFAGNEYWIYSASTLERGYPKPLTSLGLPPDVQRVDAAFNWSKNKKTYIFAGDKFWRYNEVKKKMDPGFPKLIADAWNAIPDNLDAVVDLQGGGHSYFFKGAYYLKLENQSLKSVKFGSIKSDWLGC
T2 sequence (P14780 whole entry): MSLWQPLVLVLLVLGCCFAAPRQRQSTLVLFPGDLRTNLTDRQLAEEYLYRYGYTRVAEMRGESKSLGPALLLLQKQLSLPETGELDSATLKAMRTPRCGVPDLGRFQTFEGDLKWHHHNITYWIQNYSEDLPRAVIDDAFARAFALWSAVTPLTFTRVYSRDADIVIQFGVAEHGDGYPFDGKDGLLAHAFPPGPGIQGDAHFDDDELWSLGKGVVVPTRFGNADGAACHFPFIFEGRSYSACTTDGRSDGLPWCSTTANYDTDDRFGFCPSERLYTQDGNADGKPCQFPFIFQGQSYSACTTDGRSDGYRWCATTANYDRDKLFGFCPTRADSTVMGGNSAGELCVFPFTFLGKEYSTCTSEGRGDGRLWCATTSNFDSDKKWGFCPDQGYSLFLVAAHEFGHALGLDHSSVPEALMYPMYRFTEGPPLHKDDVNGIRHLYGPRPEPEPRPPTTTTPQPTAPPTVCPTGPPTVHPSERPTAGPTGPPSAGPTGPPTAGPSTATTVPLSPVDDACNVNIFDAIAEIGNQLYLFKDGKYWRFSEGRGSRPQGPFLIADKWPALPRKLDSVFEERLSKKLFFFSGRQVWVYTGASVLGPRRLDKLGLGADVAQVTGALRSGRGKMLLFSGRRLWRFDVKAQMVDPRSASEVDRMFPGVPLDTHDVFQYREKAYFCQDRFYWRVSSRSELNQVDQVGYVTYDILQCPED

CC[C@H](C)[C@H](NC(=O)[C@@H]1CCCN1C(=O)CNC(=O)OCc1ccccc1)C(=O)N[C@@H](CCC(N)=O)C(=O)N[C@@H](CCC(=O)O)C(=O)NC(CCc1ccccc1)C(=O)N[C@@H](CC(C)C)C(=O)N[C@@H]1C[C@@H](O[C@@H]2C[C@@](O)(C(=O)CO)Cc3c(O)c4c(c(O)c32)C(=O)c2c(OC)cccc2C4=O)O[C@H](C)[C@H]1O (stereo partly drawn) (Cbz-GPIQE[ξhPhe]L-X1)
Drug metabolism [1]: Metabolite_Detected
Drug metabolism [2]: Metabolite_Notdetected
t1/2 [3]: >= 8.8 min
Retention time [4]: 3.58 min
IC50 (U-87 MG [5]): > 100 µM
IC50 (U-87 MG [6]): 5000 nM
t1/2 (Kidney): >= 38.1 min
Drug metabolism [7]: Metabolite_Notdetected
t1/2 (Liver): >= 17 min
t1/2 (Plasma): > 90 min
Drug metabolism [8]: Metabolite_Detected

O=C(O)CNC(=O)C(CC1CCCCC1)NC(=O)[C@@H]1CCCN1c1ccc([N+](=O)[O-])cc1[N+](=O)[O-] (stereo partly drawn) (Dnp-Pro-[ξCha]-Gly-OH)
Retention time [9]: 2.3 min

COc1cccc2c1C(=O)c1c(O)c3c(c(O)c1C2=O)C[C@@](O)(C(=O)CO)C[C@@H]3O[C@H]1C[C@H](N)[C@H](O)[C@H](C)O1 [DOXORUBICIN]
IC50 (U-87 MG [6]): 300 nM

CC(C)C[C@H](NC(=O)[C@@H]1CCCN1C(=O)[C@H](CCC(=O)O)NC(=O)OCc1ccccc1)C(=O)NCC(=O)O (Cbz-EPLG-OH)
Retention time [9]: 2.87 min

COc1cccc2c1C(=O)c1c(O)c3c(c(O)c1C2=O)C[C@@](O)(C(=O)CO)C[C@@H]3O[C@H]1C[C@H](NC(=O)[C@H](CC(C)C)NC(=O)[C@H](Cc2ccc(O)cc2)NC(=O)[C@H](COCc2ccccc2)NC(=O)CNC(=O)[C@H](CC(C)C)NC(=O)[C@@H]2CCCN2C(=O)[C@H](CCC(=O)O)NC(=O)OCc2ccccc2)[C@@H](O)[C@H](C)O1 (Cbz-EPLGS(Bn)YL-X2)
Drug metabolism [10]: Metabolite_Detected
Drug metabolism [11]: Metabolite_Detected
Drug metabolism [12]: Metabolite_Detected
Retention time [9]: 3.63 min
Drug metabolism [13]: Metabolite_Detected
Drug metabolism [14]: Metabolite_Detected
Drug metabolism [15]: Metabolite_Detected

CC[C@H](C)[C@H](NC(=O)[C@@H]1CCCN1C(=O)CNC(=O)OCc1ccccc1)C(=O)N[C@@H](CCC(N)=O)C(=O)N[C@@H](CCC(=O)O)C(=O)NC(CCc1ccccc1)C(=O)O (stereo partly specified) (Cbz-GPIQE[ξhPhe]-OH)
Retention time [9]: 2.83 min

CNc1ccccc1C(=O)NCCCC[C@H](NC(=O)[C@H](C)NC(=O)[C@H](Cc1c[nH]cn1)NC(=O)[C@H](N)CSC)C(N)=O
Retention time [9]: 2.47 min

COc1cccc2c1C(=O)c1c(O)c3c(c(O)c1C2=O)C[C@@](O)(C(=O)CO)C[C@@H]3O[C@H]1C[C@H](NC(=O)[C@@H](N)CC(C)C)[C@H](O)[C@H](C)O1 [LEURUBICIN]
Retention time [9]: 2.08 min
IC50 (U-87 MG [16]): 600 nM

COc1cccc2c1C(=O)c1c(O)c3c(c(O)c1C2=O)C[C@@](O)(C(=O)CO)C[C@@H]3O[C@H]1C[C@H](NC(=O)[C@H](CC(C)C)NC(=O)[C@H](Cc2ccc(O)cc2)NC(=O)[C@@H](N)COCc2ccccc2)[C@@H](O)[C@H](C)O1
Retention time [9]: 3.23 min
